Reference: US6407103B2, “Indeno [1,2-c] pyrazol-4-ones and their uses” (Bristol-Myers Squibb Pharma Company, priority 1998, dated 2002)
Structures can show the parent of a compound that is named as a salt.

| melting point | Compound |
| --- | --- |
| 238 °C | CN(C)NC(=O)Nc1cccc2c1C(=O)c1c-2n[nH]c1-c1ccc(N2CCNCC2)cc1 (as salt: TFA) [Example CCXXI, 3-(4-piperazinophenyl)-5-((N,N-dimethylamino)carbamoylamino)indeno[1,2-c]pyrazol-4-one] |
| 192 °C | CN1CCN(c2ccc(-c3[nH]nc4c3C(=O)c3c(NC(=O)NN(C)C)cccc3-4)cc2)CC1 (as salt: TFA) [Example CCXXII, 3-(4-(4-methylpiperazino)phenyl)-5-((N,N-dimethylamino)carbamoylamino)indeno[1,2-c]pyrazol-4-one] |
| 254 °C | CN1CCN(NC(=O)Nc2cccc3c2C(=O)c2c-3n[nH]c2-c2ccc(N3CCNCC3)cc2)CC1 (as salt: TFA) [Example CCXXIII, 3-(4-piperazinophenyl)-5-((4-methylpiperazino)carbamoylamino)indeno[1,2-c]pyrazol-4-one] |
| 293 °C | CN1CCN(NC(=O)Nc2cccc3c2C(=O)c2c-3n[nH]c2-c2ccc(N3CCN(C)CC3)cc2)CC1 (as salt: TFA) [Example CCXXIV, 3-(4-(4-methylpiperazino)phenyl)-5-((4-methylpiperazino)carbamoylamino)indeno[1,2-c]pyrazol-4-one] |
| 272 °C | CC(C)N1CCN(c2ccc(-c3[nH]nc4c3C(=O)c3c(NC(=O)NN5CCN(C)CC5)cccc3-4)cc2)CC1 (as salt: TFA) [Example CCXXVI, 3-(4-(4-isopropylpiperazino)phenyl)-5-((4-methylpiperazino)carbamoylamino)indeno[1,2-c]pyrazol-4-one] |
| 270 °C | CC1CCCC(C)N1NC(=O)Nc1cccc2c1C(=O)c1c-2n[nH]c1-c1ccc(N2CCNCC2)cc1 (stereo not drawn) (as salt: TFA) [Example CCXXVII, 3-(4-piperazinophenyl)-5-((2,6-dimethylpiperidino)carbamoylamino)indeno[1,2-c]pyrazol-4-one] |
| 279 °C | O=C(Nc1cccc2c1C(=O)c1c-2n[nH]c1-c1ccc(N2CCNCC2)cc1)NN1CCN(CCO)CC1 (as salt: TFA) [Example CCXXVIII, 3-(4-piperazinophenyl)-5-((4-(2-hydroxyethyl)piperazino)carbamoylamino)indeno[1,2-c]pyrazol-4-one] |
| 221 °C | COC(C)(C)[C@H]1CCCN1NC(=O)Nc1cccc2c1C(=O)c1c-2n[nH]c1-c1ccc(N2CCNCC2)cc1 (as salt: TFA) [Example CCXXXI, 3-(4-piperazinophenyl)-5-((2(R)-(1-methoxy-1-methylethyl)pyrrolidino)carbamoylamino)indeno[1,2-c]pyrazol-4-one] |
| 218 °C | COC(C)(C)[C@@H]1CCCN1NC(=O)Nc1cccc2c1C(=O)c1c-2n[nH]c1-c1ccc(N2CCNCC2)cc1 (as salt: TFA) [Example CCXXXII, 3-(4-piperazinophenyl)-5-((2(S)-(1-methoxy-1-methylethyl)pyrrolidino)carbamoylamino)indeno[1,2-c]pyrazol-4-one] |
| 193 °C | O=C(Nc1cccc2c1C(=O)c1c-2n[nH]c1-c1ccc(N2CCNCC2)cc1)NN1CCC[C@@H]1CO (as salt: TFA) [Example CCXXXIII, 3-(4-piperazinophenyl)-5-((2(R)-(hydroxymethyl)pyrrolidino)carbamoylamino)indeno[1,2-c]pyrazol-4-one] |
| 190 °C | O=C(Nc1cccc2c1C(=O)c1c-2n[nH]c1-c1ccc(N2CCNCC2)cc1)NN1CCC[C@H]1CO (as salt: TFA) [Example CCXXXIV, 3-(4-piperazinophenyl)-5-((2(S)-(hydroxymethyl)pyrrolidino)carbamoylamino)indeno[1,2-c]pyrazol-4-one] |
| 207 °C | O=C(Nc1cccc2c1C(=O)c1c-2n[nH]c1-c1ccc(N2CCNCC2)cc1)NN1CCC[C@@H]1COCc1ccccc1 (as salt: TFA) [Example CCXXXV, 3-(4-piperazinophenyl)-5-((2(R)-(benzyloxymethyl)pyrrolidino)carbamoylamino)indeno[1,2-c]pyrazol-4-one] |
| 230 °C | CC1CN(c2ccc(-c3[nH]nc4c3C(=O)c3c(NC(=O)NN5CCOCC5)cccc3-4)cc2)CCN1 (stereo not drawn) (as salt: TFA) [Example CCXXXVII, 3-(4-(3-methylpiperazino)phenyl)-5-(morpholinocarbamoylamino)indeno[1,2-c]pyrazol-4-one] |
| 237 °C | C[C@@H]1CN(c2ccc(-c3[nH]nc4c3C(=O)c3c(NC(=O)NN5CCOCC5)cccc3-4)cc2)C[C@H](C)N1 (as salt: TFA) [Example CCXXXVIII, 3-(4-(cis-3,5-dimethylpiperazino)phenyl)-5-(morpholinocarbamoylamino)indeno[1,2-c]pyrazol-4-one] |
| 186 °C | CN1CCN(C(=O)c2ccc(-c3[nH]nc4c3C(=O)c3c(NC(=O)NN5CCOCC5)cccc3-4)s2)CC1 (as salt: TFA) [Example CL, 3-(5-(4-methylpiperazinocarbonyl)-2-thienyl)-5-(morpholinocarbamoylamino)indeno[1,2-c]pyrazol-4-one] |
| 186 °C | CCN1CCN(C(=O)c2ccc(-c3[nH]nc4c3C(=O)c3c(NC(=O)NN5CCOCC5)cccc3-4)s2)CC1 (as salt: TFA) [Example CLI, 3-(5-(4-ethylpiperazinocarbonyl)-2-thienyl)-5-(morpholinocarbamoylamino)indeno[1,2-c]pyrazol-4-one] |
| 186 °C | O=C(Nc1cccc2c1C(=O)c1c-2n[nH]c1-c1ccc(C(=O)N2CCN(CCO)CC2)s1)NN1CCOCC1 (as salt: TFA) [Example CLII, 3-(5-(4-(2-hydroxyethyl)piperazinocarbonyl)-2-thienyl)-5-(morpholinocarbamoylamino)indeno[1,2-c]pyrazol-4-one] |
| 211 °C | O=C(Nc1cccc2c1C(=O)c1c-2n[nH]c1-c1ccc(C(=O)N2CCN(CC3CC3)CC2)s1)NN1CCOCC1 (as salt: TFA) [Example CLIII, 3-(5-(4-(cyclopropylmethyl)piperazinocarbonyl)-2-thienyl)-5-(morpholinocarbamoylamino)indeno[1,2-c]pyrazol-4-one] |
| 228 °C | O=C(Nc1cccc2c1C(=O)c1c-2n[nH]c1-c1ccc(C(=O)N2CCC(N3CCCC3)CC2)s1)NN1CCOCC1 (as salt: TFA) [Example CLIX, 3-(5-(4-pyrrolidinopiperidinocarbonyl)-2-thienyl)-5-(morpholinocarbamoylamino)indeno[1,2-c]pyrazol-4-one] |
| 202 °C | O=C(Nc1cccc2c1C(=O)c1c-2n[nH]c1-c1ccc(C(=O)N2CCN(c3ccccn3)CC2)s1)NN1CCOCC1 (as salt: TFA) [Example CLV, 3-(5-(4-(2-pyridyl)piperazinocarbonyl)-2-thienyl)-5-(morpholinocarbamoylamino)indeno[1,2-c]pyrazol-4-one] |
| > 300 °C | O=C(Nc1cccc2c1C(=O)c1c-2n[nH]c1-c1ccc(C(=O)[C@]23CN[C@H](CN2)C3)s1)NN1CCOCC1 (as salt: TFA) [Example CLVI, 3-(5-(((1S,4S)-(+)-2,5-diazabicyclo[2.2.1]heptyl)carbonyl)-2-thienyl)-5-(morpholinocarbamoylamino)indeno [1,2-c]pyrazol-4-one] |
| 244 °C | CN1C[C@@H]2C[C@@]1(C(=O)c1ccc(-c3[nH]nc4c3C(=O)c3c(NC(=O)NN5CCOCC5)cccc3-4)s1)CN2 (as salt: TFA) [Example CLVII, 3-(5-(((1S,4S)-(+)-2-methyl-2,5-diazabicyclo[2.2.1]heptyl)carbonyl)-2-thienyl)-5-(morpholinocarbamoylamino)indeno[1,2-c]pyrazol-4-one] |
| 185 °C | CN(C)C1CCN(C(=O)c2ccc(-c3[nH]nc4c3C(=O)c3c(NC(=O)NN5CCOCC5)cccc3-4)s2)CC1 (as salt: TFA) [Example CLVIII, 3-(5-(4-(N,N-dimethylamino)piperidinocarbonyl)-2-thienyl)-5-(morpholinocarbamoylamino)indeno[1,2-c]pyrazol-4-one] |
| 264 °C | O=C(Nc1cccc2c1C(=O)c1c-2n[nH]c1-c1ccc(C(=O)NC2CCCCC2)s1)NN1CCOCC1 (as salt: TFA) [Example CLXI, 3-(5-cyclohexylaminocarbonyl-2-thienyl)-5-(morpholinocarbamoylamino)indeno[1,2-c]pyrazol-4-one] |
| 224 °C | O=C(Nc1cccc2c1C(=O)c1c-2n[nH]c1-c1ccc(C(=O)NC2CCNCC2)s1)NN1CCOCC1 (as salt: TFA) [Example CLXII, 3-(5-(4-piperidylaminocarbonyl)-2-thienyl)-5-(morpholinocarbamoylamino)indeno[1,2-c]pyrazol-4-one] |
| > 300 °C | CN(C)C1CCCN(C(=O)c2ccc(-c3[nH]nc4c3C(=O)c3c(NC(=O)NN5CCOCC5)cccc3-4)s2)C1 (stereo not drawn) (as salt: TFA) [Example CLXV, 3-(5-(3-(N,N-dimethylamino)piperidinocarbonyl)-2-thienyl)-5-(morpholinocarbamoylamino)indeno[1,2-c]pyrazol-4-one] |
| > 300 °C | O=C(Nc1cccc2c1C(=O)c1c-2n[nH]c1-c1ccc(C(=O)NC2CCCNC2)s1)NN1CCOCC1 (stereo not drawn) (as salt: TFA) [Example CLXVIII, 3-(5-((3-piperidyl)aminocarbonyl)-2-thienyl)-5-(morpholinocarbamoylamino)indeno[1,2-c]pyrazol-4-one] |
| > 300 °C | NC1CCCC(NC(=O)c2ccc(-c3[nH]nc4c3C(=O)c3c(NC(=O)NN5CCOCC5)cccc3-4)s2)C1 (stereo not drawn) (as salt: TFA) [Example CLXX, 3-(5-((3-aminocyclohexyl)aminocarbonyl)-2-thienyl)-5-(morpholinocarbamoylamino)indeno[1,2-c]pyrazol-4-one] |

| Compound | melting point |
| --- | --- |
| CC(C)(C)OC(=O)N1CCN(C(=O)c2ccc(-c3[nH]nc4c3C(=O)c3c(NC(=O)NN5CCOCC5)cccc3-4)s2)CC1 (as salt: TFA) [Example CLIV, 3-(5-(4-(t-butoxycarbonyl)piperazinocarbonyl)-2-thienyl)-5-(morpholinocarbamoylamino)indeno[1,2-c]pyrazol-4-one] | 225 °C |
| CC(C)(C)OC(=O)NC1CCCC(NC(=O)c2ccc(-c3[nH]nc4c3C(=O)c3c(NC(=O)NN5CCOCC5)cccc3-4)s2)C1 (stereo not drawn) (as salt: TFA) [Example CLXXI, 3-(5-((3-(t-butoxycarbonylamino)cyclohexyl)aminocarbonyl)-2-thienyl)-5-(morpholinocarbamoylamino)indeno[1,2-c]pyrazol-4-one] | > 300 °C |
